According to PubChem BioAssay AID248 (DTP/NCI, 2004):
“And” between values parts separate entries of the source, which are not always exact repeats. Equal values may be shown once. Toxic doses and inconclusive results are not listed.

Tested on: L1210 leukemia ip in BDF1 mice, survival T/C
Test: NCI In Vivo Anticancer Drug Screen. Data for tumor model L1210 Leukemia (intraperitoneal) in B6D2F1 (BDF1) mice
Settings: endpoint: mean survival time, higher = longer survival
Summary of the method: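 Transplanted-tumor mice were given test agent; controls received vehicle only. Survival readings from the two groups were divided (treated over control).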

[1] = dose: 25.0 mg/kg/injection, schedule: Q01DX009 (ip), vehicle: Klucel (hydroxypropylcellulose) (HPC)
[2] = dose: 50.0 mg/kg/injection, schedule: Q01DX009 (ip), vehicle: Klucel (hydroxypropylcellulose) (HPC)
[3] = dose: 100.0 mg/kg/injection, schedule: Q01DX009 (ip), vehicle: Klucel (hydroxypropylcellulose) (HPC)
[4] = dose: 100.0 mg/kg/injection, schedule: Q04DX002 (ip), vehicle: Klucel (hydroxypropylcellulose) (HPC)
[5] = dose: 200.0 mg/kg/injection, schedule: Q04DX002 (ip), vehicle: Klucel (hydroxypropylcellulose) (HPC)
[6] = dose: 400.0 mg/kg/injection, schedule: Q04DX002 (ip), vehicle: Klucel (hydroxypropylcellulose) (HPC)
[7] = dose: 100.0 mg/kg/injection, schedule: Q04DX003 (ip), vehicle: Klucel (hydroxypropylcellulose) (HPC)
[8] = dose: 400.0 mg/kg/injection, schedule: Q01DX009 (ip), vehicle: Klucel (hydroxypropylcellulose) (HPC)
[9] = dose: 200.0 mg/kg/injection, schedule: Q01DX009 (ip), vehicle: Klucel (hydroxypropylcellulose) (HPC)
[10] = dose: 50.0 mg/kg/injection, schedule: Q01DX001 (ip), vehicle: carboxymethylcellulose (CMC)
[11] = dose: 100.0 mg/kg/injection, schedule: Q01DX009 (ip), vehicle: saline with Tween-80
[12] = dose: 200.0 mg/kg/injection, schedule: Q01DX009 (ip), vehicle: saline with Tween-80
[13] = dose: 100.0 mg/kg/injection, schedule: Q01DX001 (ip), vehicle: carboxymethylcellulose (CMC)

With `CCCNC(=O)Sc1ccc(C(C)(C)C)cc1` the T/C (dose: 25.0 mg/kg/injection, schedule: Q01DX001 (ip), vehicle: Klucel (hydroxypropylcellulose) (HPC)) was 91 % of control, the T/C [1] was 95 % of control and 104 % of control and the T/C (dose: 50.0 mg/kg/injection, schedule: Q01DX001 (ip), vehicle: Klucel (hydroxypropylcellulose) (HPC)) was 91 % of control. The T/C [2] was 98 % of control and 112 % of control, the T/C (dose: 100.0 mg/kg/injection, schedule: Q01DX001 (ip), vehicle: Klucel (hydroxypropylcellulose) (HPC)) was 93 % of control and the T/C [3] was 93 % of control and 102 % of control and 104 % of control. For the same compound, the T/C [4] was 95 % of control and 89 % of control, the T/C [5] was 96 % of control and 97 % of control and the T/C [6] was 92 % of control and 93 % of control.
In the case of `Cc1cn(C2CCCCC2)c(=O)[nH]c1=O`, the T/C (dose: 25.0 mg/kg/injection, schedule: Q01DX Z (ip), vehicle: methylcellulose (MC)) is reported as 89 % of control and the T/C (dose: 50.0 mg/kg/injection, schedule: Q01DX Z (ip), vehicle: methylcellulose (MC)) is reported as 92 % of control.
In the case of `C[C@]1(O)CC[C@H]2[C@@H]3CC[C@@H]4C[C@H](O)CC[C@]4(C)[C@@]3(F)[C@@H](O)C[C@@]21C`, the T/C (dose: 50.0 mg/kg/injection, schedule: Q01DX Z (sc), vehicle: steriod suspending solution) is reported as 107 % of control, the T/C (dose: 250.0 mg/kg/injection, schedule: Q01DX Z (sc), vehicle: steriod suspending solution) is reported as 101 % of control and the T/C (dose: 500.0 mg/kg/injection, schedule: Q01DX Z (sc), vehicle: steriod suspending solution) is reported as 95 % of control.
`O=C(COc1cccc(Cl)c1)Nc1cccnc1` was tested, and the T/C (dose: 12.0 mg/kg/injection, schedule: Q01DX009 (ip), vehicle: Klucel (hydroxypropylcellulose) (HPC)) was 89 % of control, the T/C [1] was 98 % of control and the T/C [2] was 92 % of control. For the same compound, the T/C [7] was 93 % of control, the T/C (dose: 200.0 mg/kg/injection, schedule: Q04DX003 (ip), vehicle: Klucel (hydroxypropylcellulose) (HPC)) was 103 % of control and the T/C [8] was 87 % of control.
In the case of `CCCCCCCCO/N=C\c1c2c(O)c3c(O)c(C)c4c(c3c1O)C(=O)C(C)(O/C=C\C(OC)C(C)C(OC(C)=O)C(C)C(O)C(C)C(O)C(C)/C=C\C=C(\C)C(=O)N2)O4` (stereo not given), the T/C (dose: 50.0 mg/kg/injection, schedule: Q04DX003 (ip), vehicle: water) is reported as 96 % of control, the T/C [3] is reported as 106 % of control and the T/C (dose: 100.0 mg/kg/injection, schedule: Q04DX003 (ip), vehicle: water) is reported as 100 % of control. The T/C [9] was 89 % of control, the T/C (dose: 200.0 mg/kg/injection, schedule: Q04DX003 (ip), vehicle: water) was 98 % of control and the T/C (dose: 400.0 mg/kg/injection, schedule: Q04DX003 (ip), vehicle: water) was 104 % of control.
`COC1OC(CBr)C(OS(C)(=O)=O)C(OC(=O)c2ccccc2)C1OC(=O)c1ccccc1` (stereo not given) was tested, and the T/C [4] was 103 % of control, the T/C [5] was 91 % of control and the T/C [6] was 94 % of control.
For `NC1(C(=O)O)CCCc2ccc(N(CCCl)CCCl)cc21` (stereo not given), the T/C (dose: 0.45 mg/kg/injection, schedule: Q01DX009 (ip), vehicle: carboxymethylcellulose (CMC)) was 101 % of control, the T/C (dose: 0.95 mg/kg/injection, schedule: Q01DX009 (ip), vehicle: carboxymethylcellulose (CMC)) was 124 % of control and the T/C (dose: 1.8 mg/kg/injection, schedule: Q01DX009 (ip), vehicle: carboxymethylcellulose (CMC)) was 119 % of control. The T/C (dose: 6.0 mg/kg/injection, schedule: Q01DX001 (ip), vehicle: carboxymethylcellulose (CMC)) was 121 % of control, the T/C (dose: 8.3 mg/kg/injection, schedule: Q01DX009 (ip), vehicle: carboxymethylcellulose (CMC)) was 152 % of control and the T/C (dose: 10.8 mg/kg/injection, schedule: Q01DX009 (ip), vehicle: carboxymethylcellulose (CMC)) was 168 % of control. For the same compound, the T/C (dose: 11.0 mg/kg/injection, schedule: Q01DX001 (ip), vehicle: carboxymethylcellulose (CMC)) was 114 % of control and 124 % of control, the T/C (dose: 12.5 mg/kg/injection, schedule: Q01DX009 (ip), vehicle: carboxymethylcellulose (CMC)) was 163 % of control and 165 % of control and the T/C (dose: 16.0 mg/kg/injection, schedule: Q01DX001 (ip), vehicle: carboxymethylcellulose (CMC)) was 112 % of control. For the same compound, the T/C (dose: 18.0 mg/kg/injection, schedule: Q01DX009 (ip), vehicle: carboxymethylcellulose (CMC)) was 161 % of control, the T/C (dose: 48.0 mg/kg/injection, schedule: Q01DX001 (ip), vehicle: carboxymethylcellulose (CMC)) was 114 % of control and the T/C [10] was 123 % of control.
For `O=C(Nc1ccc(Cl)cc1Cl)OCCOc1ccc([N+](=O)[O-])cc1`, the T/C (dose: 50.0 mg/kg/injection, schedule: Q01DX009 (ip), vehicle: saline with Tween-80) was 102 % of control, the T/C [11] was 98 % of control and the T/C [12] was 93 % of control.
With `O=C1CCCC(=O)NNC(=O)NCCCCCCNC(=O)NN1` the T/C (dose: 50.0 mg/kg/injection, schedule: Q01DX001 (ip), vehicle: saline) was 102 % of control, the T/C (dose: 100.0 mg/kg/injection, schedule: Q01DX001 (ip), vehicle: saline) was 87 % of control and the T/C (dose: 200.0 mg/kg/injection, schedule: Q01DX001 (ip), vehicle: saline) was 87 % of control. The T/C (dose: 400.0 mg/kg/injection, schedule: Q01DX001 (ip), vehicle: saline) was 96 % of control.
In the case of `CCOC(=O)CCN(CC)C(C)=O`, the T/C (dose: 100.0 mg/kg/injection, schedule: Q01DX009 (ip), vehicle: saline) is reported as 93 % of control, the T/C (dose: 100.0 mg/kg/injection, schedule: Q04DX003 (ip), vehicle: saline sonified) is reported as 101 % of control and the T/C (dose: 200.0 mg/kg/injection, schedule: Q01DX009 (ip), vehicle: saline) is reported as 93 % of control. The T/C (dose: 200.0 mg/kg/injection, schedule: Q04DX003 (ip), vehicle: saline sonified) was 95 % of control, the T/C (dose: 400.0 mg/kg/injection, schedule: Q01DX009 (ip), vehicle: saline) was 93 % of control and the T/C (dose: 400.0 mg/kg/injection, schedule: Q04DX003 (ip), vehicle: saline sonified) was 95 % of control.
`COC1CN(C(C)(C)C)C1` was tested, and the T/C (dose: 100.0 mg/kg/injection, schedule: Q04DX003 (ip), vehicle: saline) was 103 % of control.
In the case of `Cc1ccc(S(=O)(=O)N=P(c2ccccc2)(c2ccccc2)c2ccccc2)cc1`, the T/C [10] is reported as 90 % of control, the T/C [13] is reported as 95 % of control and the T/C (dose: 100.0 mg/kg/injection, schedule: Q04DX003 (ip), vehicle: saline with Tween-80) is reported as 86 % of control. The T/C (dose: 200.0 mg/kg/injection, schedule: Q01DX001 (ip), vehicle: carboxymethylcellulose (CMC)) was 92 % of control, the T/C (dose: 200.0 mg/kg/injection, schedule: Q04DX003 (ip), vehicle: saline with Tween-80) was 86 % of control and the T/C (dose: 400.0 mg/kg/injection, schedule: Q01DX001 (ip), vehicle: carboxymethylcellulose (CMC)) was 86 % of control. The T/C (dose: 400.0 mg/kg/injection, schedule: Q04DX003 (ip), vehicle: saline with Tween-80) was 91 % of control.
For `CC(=O)Nc1nc(C)c(CCCN(Cc2ccccc2)C(C)=O)c(=O)[nH]1`, the T/C (dose: 75.0 mg/kg/injection, schedule: Q01DX001 (ip), vehicle: Klucel (hydroxypropylcellulose) (HPC)) was 96 % of control, the T/C (dose: 150.0 mg/kg/injection, schedule: Q01DX001 (ip), vehicle: Klucel (hydroxypropylcellulose) (HPC)) was 99 % of control and the T/C (dose: 300.0 mg/kg/injection, schedule: Q01DX001 (ip), vehicle: Klucel (hydroxypropylcellulose) (HPC)) was 92 % of control.
`O=C1C(Cl)=C(N=Nc2c(Cl)c(O)c3ccccc3c2O)C(=O)c2ccccc21` was tested, and the T/C (dose: 12.5 mg/kg/injection, schedule: Q01DX009 (ip), vehicle: acetone) was 105 % of control, the T/C (dose: 25.0 mg/kg/injection, schedule: Q01DX009 (ip), vehicle: acetone) was 107 % of control and the T/C (dose: 50.0 mg/kg/injection, schedule: Q01DX009 (ip), vehicle: acetone) was 104 % of control. The T/C [13] was 97 % of control.
In the case of `C/C(=C\Nc1cccnc1)C(=O)c1ccc(F)cc1`, the T/C [11] is reported as 102 % of control, the T/C [12] is reported as 102 % of control and the T/C (dose: 400.0 mg/kg/injection, schedule: Q01DX009 (ip), vehicle: saline with Tween-80) is reported as 98 % of control.
In the case of `Nc1cc(NC(c2ccccc2)c2ccccc2)c(N)c(N)n1`, the T/C (dose: 100.0 mg/kg/injection, schedule: Q01DX001 (ip), vehicle: gum acacia) is reported as 88 % of control, the T/C (dose: 200.0 mg/kg/injection, schedule: Q01DX001 (ip), vehicle: gum acacia) is reported as 90 % of control and the T/C (dose: 400.0 mg/kg/injection, schedule: Q01DX001 (ip), vehicle: gum acacia) is reported as 92 % of control.
With `CC(NC(=O)Nc1ccccc1Cl)c1ccccc1` (stereo not given) the T/C [3] was 105 % of control, the T/C [9] was 105 % of control and the T/C [8] was 102 % of control.
In the case of `CCOC(=O)c1nnn(-c2cccc(C(F)(F)F)c2)c1-c1ccccc1`, the T/C [4] is reported as 101 % of control, the T/C [5] is reported as 105 % of control and the T/C [6] is reported as 96 % of control.
With `CCN1C(C)C1C(C)C` (stereo not given) the T/C [1] was 105 % of control, the T/C [2] was 107 % of control and the T/C [3] was 109 % of control. For the same compound, the T/C [7] was 117 % of control.
